Measurements reported in US20030134342A1, “Binding-specific peptides, binding-specific carrier molecules, and uses thereof” (priority 2001, published 2003).
Where a SMILES comes first, the peptide text is derived from it.

Tests used:
[1] = test system: human myeloid leukemia cell line HL60; experiment: Viability of HL60 cells, trypan blue; type: cell-based; details: for Day 5 Viability: 5 day; for Day 7 Viability: 7 day; for Day 9 Viability: 9 day
Method: (§1) Studies were conducted of the effects of the free G5 12-8B (artificially synthesized), phage displaying G5 12-8B, the free A2 11-24 peptide, phage displaying the A2 11-24 peptide, a combination of the free G5 and A2 peptides, a combination of pure peptides plus phage displaying the peptides, and several concentrations of peptide.

[2] = test system: human myeloid leukemia cell line HL60; experiment: Proliferation of HL60 cells: cell number after 7 days culture; type: cell-based; details: for No. Cells: HL60, after 7 days; for Percent relative to Controls: HL60 cell number after 7 days
From the text: The number of cells after 7 days culture growth were counted in the presence or absence of the different molecules. Results are shown for the free G5 12-8B peptide alone (artificially synthesized), phage displaying G5 12-8B, the free A2 11-24 peptide, phage displaying the A2 11-24 peptide, a combination of the free G5 and A2 peptides, a combination of the free pure with phage displaying the peptides, and several concentrations of peptide.
(§2) Such inhibition is not the result of the killing of the cells. The data are graphed in the Figures.
The control number of cells per milliliter (2.6) is an average of results from dual controls (2.6×10^6).
(§3) DMSO, dimethylsulfoxide, is a chemical that induces HL60 cellular differentiation.

[3] = test system: human myeloid leukemia cell line HL60; experiment: Differentiation of HL60 cells; type: cell-based
[4] = test system: human myeloid leukemia cell line HL60; experiment: Differentiation of HL60 cells; type: cell-based; remark: listed apart in the source
From the text: FIG. 1 illustrates the effects of several peptides on the differentiation of the human myeloid leukemia cell line HL60.
as §2, §3
The level of differentiation of the HL60 cells after 5 or 7 days growth in the presence or absence of the various phage and peptides combinations described above are shown in FIG. 1. The high level of differentiation that has been achieved is notable from the graph in FIG. 1. The levels of differentiation in the presence of peptide exceed that produced by the presence of phage alone.

[5] = Viability of HL60 cells, trypan blue; type: cell-based; details: human
Method: as §1

CML cells = experiment: ELISA binding of phage displaying peptides to fixed cells: CML cells; design: species or system human; details: in words
Method: (§4) Preliminary experiments were performed to identify specific peptides by using cells from patients diagnosed with CLL, CML, and AML. The screening was performed by incubating the cells with the phage-peptides from the library. This incubation allows interaction between the peptide and the cell. The binding step was followed by several washes to eliminate free phage. Phage bound on the cell surface was eluted.
(§5) After the last round of binding with one cell type, the eluted phage was plated on an agar plate with the appropriate selection antibiotics. Each individual colony, corresponding to one individual peptide sequence, was amplified in a 96-well plate. After purification, these peptides were tested for their ability to bind to the cells in a microtiter plate by ELISA.
(§6) Each peptide was dispensed in a 96-well plate, containing cells previously fixed. Each colony was tested in a triplicate assay with the appropriate controls. After incubation of cells with an individual clone, the wells were washed to eliminate free phage. The bound phages were detected by using a monoclonal anti-M13 antibody/horseradish peroxidase (HRP) conjugate. After addition of the HRP substrate, the intensity of the coloration was measured by spectrophotometry. The light absorbance values (optical density values, O.D. values) are proportional to the number of phage bound to the cells.
(§7) The binding to various cell types were examined to evaluate the cellular specificity of the phage clones. For example, the clones from phage eluted from CLL patient cells were assayed for their ability to bind cells from an AML patient. Cells from normal donors (non-leukemic) were also evaluated to ascertain leukemia cell specificity.
(§8) Peripheral blood and bone marrow samples were collected from patients after informed consent. The samples were collected in tubes containing sodium citrate. Mononuclear cells were isolated by Ficoll-Hypaque density gradient separation and collection of the cells at a density of 1.077 g/mL.
(§9) The wells of a 96-well plate were pre-treated with 100 μL of poly-L-lysine (0.01 mg/mL in phosphate-buffered saline, 120 mM NaCl, 2.7 mM KCl, 10 mM phosphate buffer, “PBS”) for 2-16 hours at room temperature. After draining the poly-L-lysine from the wells, the excess poly-L-lysine was removed from the wells by flicking. The cells were washed with PBS, then suspended in PBS and diluted to a final concentration of […]. The cell suspension (200 μL; 250,000 cells) were added to each well needed for the assay.
(§10) The plates were centrifuged at 500 g for about 5 minutes in a microplate carrying centrifuge when available. The cells were fixed to the wells through the addition of glutaraldehyde (100 μL of 0.5%) and incubating at room temperature for about an hour. The glutaraldehyde was removed and the cell-coated wells washed once with PBS. Alternatively, the cells were permitted to settle to the well bottoms for about 4 hours at 37° C., and the glutaraldehyde fixative was added after removing the PBS.
(§11) A glycine solution (200 μl of 0.1 M glycine in PBS) containing bovine serum albumin (BSA; 1%) was added to the wells and permitted to incubate for 30 minutes to block excess glutaraldehyde. The glycine was removed, and the cell-coated wells washed once with PBS. A sodium pyrophosphate solution (200 μL of 0.3 mg/mL NaPPi) was added to the wells and incubated for an hour at room temperature to neutralize lysine charges. The pyrophosphate solution was removed and the wells washed once with PBS. Multiwell microtiter plates with cell-coated wells were stored at 4° C. with fresh PBS solution in the coated wells.
(§12) The cells to be studied for binding were suspended in PBS and adsorbed onto to a poly-L-lysine pretreated 96-well plate and kept at 4° C. The PBS was removed from the wells and an H2O2 solution in PBS (6% H2O2 in 200 μL/well) was added. […]

AML cells = experiment: ELISA binding of phage displaying peptides to fixed cells: AML cells; design: species or system human; details: in words
Method: as §4, §5, §6, §7, §8, §9, §10, §11, §12

CLL cells = experiment: ELISA binding of phage displaying peptides to fixed cells: CLL cells; design: species or system human; details: in words
Method: as §4, §5, §6, §7, §8, §9, §10, §11, §12

CD34+ cells = experiment: ELISA binding of phage displaying peptides to fixed cells: CD34+ cells; design: species or system human; details: in words
Method: as §4, §5
as §6, with “Each colony was tested in a triplicate assay with the appropriate controls. After incubation of cells with an individual clone, the wells were washed to eliminate free phage.” left out
(§13) The binding to various cell types were examined to evaluate the cellular specificity of the phage clones. […] Cells from normal donors (non-leukemic) were also evaluated to ascertain leukemia cell specificity. […]

AML bone marrow cells = experiment: Methylcellulose culture of AML bone marrow cells with peptides: proliferation (colonies) and differentiation (morphology); type: cell-based, human; details: patient numbers
Method: The effect of various peptides were analyzed for their biological activity on cells from a patient with acute myelogenous leukemia. The AML cells were cultured into a semi-solid medium of methylcellulose in order to determine the cloning efficiency and the differentiation of the cells. The various peptides were introduced into the semi-solid cell culture at a concentration of 10^−4 M (0.1 mM) peptide. After 14 days continuous incubation of the cell cultures, the morphology of the cells were analyzed. The data are shown in FIG. 7 for the cultures and show the percentage of immature cells in the culture (solid black), the percentage of small myeloblasts (solid white), the percentage of young cells (dark gray), and the relative percentage of monocytes to […] (light gray). The data regarding the biological response of AML bone marrow cells in the presence of the various peptides is shown in the table below.

[6] = test system: human bone marrow AML cells; experiment: Effect of phage-peptides on differentiation, cell number and viability of freshly obtained AML patient bone marrow cells cultured seven days; type: cell-based; details: for Number of Cells / Percent Differentiation: phage-peptides; for Percent differentiated in Specimen 1 / Percent differentiated in Specimen 2: peptides in bacteriophage, AML cells cultured seven days in vitro
From the text: The effect of various phage-peptides were studied on the differentiation of cells from two AML patients.

normal bone marrow cells = experiment: ELISA binding of phage displaying peptides to fixed cells: normal bone marrow; design: species or system human; details: in words
Method: as §4, §5
as §6, with “Each colony was tested in a triplicate assay with the appropriate controls. After incubation of cells with an individual clone, the wells were washed to eliminate free phage.” left out
as §13

cord blood cells = experiment: ELISA binding of phage displaying peptides to fixed cells: cord blood cells; design: species or system human; details: in words
Method: as §4, §5
as §6, with “Each colony was tested in a triplicate assay with the appropriate controls. After incubation of cells with an individual clone, the wells were washed to eliminate free phage.” left out
as §13

Molecule: CC[C@H](C)[C@H](NC(=O)[C@@H](N)CS)C(=O)N[C@@H](CCC(=O)O)C(=O)N[C@@H](CCC(=O)O)C(=O)N[C@H](C(=O)N[C@@H](C)C(=O)N[C@@H](CCCNC(=N)N)C(=O)N[C@@H](CCCCN)C(=O)NCC(=O)N[C@@H](CS)C(=O)O)[C@@H](C)O [A2 11-24 peptide] (H-CIEETARKGC-OH; N-terminus and C-terminus assumed)
- Day 5 Viability [1]: 100%
- Day 7 Viability [1]: 96%
- Day 9 Viability [1]: 87%
- No. Cells ([2]; free peptide at 10^−4 M): 2.0 10^6 cell/mL
- Percent relative to Controls ([2]; free peptide at 10^−4 M): 77%
- Day 9 % Diff. ([3]; free peptide at 10^−4 M): 25%
- Day 5 % Diff. ([4]; free peptide at 10^−4 M): 18%
- Day 5 % Diff., figure in parentheses ([4]; free peptide at 10^−4 M): 150%
- Day 7 % Diff. ([4]; free peptide at 10^−4 M): 30%
- Day 7 % Diff., figure in parentheses ([4]; free peptide at 10^−4 M): 188%

Molecule: C[S+](C)[O-] [DMSO, dimethylsulfoxide, reference compound]
- viability at 5 days [5]: 98%
- viability at 7 days [5]: 97%
- viability at 9 days [5]: 82%
- No. Cells ([2]; concentration not given): 0.9 10^6 cell/mL
- Percent relative to Controls ([2]; concentration not given): 30%
- Day 9 % Diff. ([3]; concentration not given): off scale
- Day 5 % Diff. ([4]; concentration not given): off scale
- Day 7 % Diff. ([4]; concentration not given): off scale

Molecule: NCCCC[C@H](NC(=O)CNC(=O)[C@H](CO)NC(=O)[C@H](Cc1c[nH]c2ccccc12)NC(=O)[C@H](CCC(N)=O)NC(=O)[C@H](CCC(N)=O)NC(=O)[C@H](Cc1ccccc1)NC(=O)[C@H](CCC(=O)O)NC(=O)[C@@H](N)CS)C(=O)N[C@@H](CS)C(=O)O [G5 12-8B peptide] (H-CEFQQWSGKC-OH; N-terminus and C-terminus assumed)
- Day 5 Viability [1]: 98%
- Day 7 Viability [1]: 96%
- Day 9 Viability [1]: 90%
- No. Cells ([2]; free peptide at 10^−4 M): 1.2 10^6 cell/mL
- Percent relative to Controls ([2]; free peptide at 10^−4 M): 48%
- Day 9 % Diff. ([3]; free peptide at 10^−4 M): 22%
- Day 5 % Diff. ([4]; free peptide at 10^−4 M): 22%
- Day 5 % Diff., figure in parentheses ([4]; free peptide at 10^−4 M): 183%
- Day 7 % Diff. ([4]; free peptide at 10^−4 M): 31%
- Day 7 % Diff., figure in parentheses ([4]; free peptide at 10^−4 M): 194%

Molecule: CIEETARKGC [A2 11-24]
- binding of phage displaying the peptide to CML cells (CML cells): bind
- binding of phage displaying the peptide to AML cells (AML cells): bind
- binding of phage displaying the peptide to CLL cells (CLL cells): not
- binding of phage displaying the peptide to CD34+ cells (CD34+ cells): bind
- Activation of Differentiation (AML bone marrow cells): 3

Molecule: EFQQWSGK [G5 12-8B phage]
- No. Cells ([2]; phage 75): 3.8 10^6 cell/mL
- Percent relative to Controls ([2]; phage 75): 140%
- Day 9 % Diff. ([3]; phage 75): 46%
- Day 5 % Diff. ([4]; phage 75): 17%
- Day 5 % Diff., figure in parentheses ([4]; phage 75): 142%
- Day 7 % Diff. ([4]; phage 75): 46%
- Day 7 % Diff., figure in parentheses ([4]; phage 75): 288%
- Number of Cells ([6]; Patient 1): 1.11 106
- Percent Differentiation ([6]; Patient 1): 27.9%
- Number of Cells ([6]; Patient 2, listed as GS-12-8B): 0.31 106
- Percent Differentiation ([6]; Patient 2, listed as GS-12-8B): 61%
- Percent differentiated in Specimen 1 [6]: 28%
- Percent differentiated in Specimen 2 [6]: 61%

Molecule: IEETARKG [A2 11-24 phage]
- No. Cells ([2]; phage 75): 1.6 10^6 cell/mL
- Percent relative to Controls ([2]; phage 75): 62%
- Day 9 % Diff. ([3]; phage 75): 64%
- Day 5 % Diff. ([4]; phage 75): 18%
- Day 5 % Diff., figure in parentheses ([4]; phage 75): 150%
- Day 7 % Diff. ([4]; phage 75): 52%
- Day 7 % Diff., figure in parentheses ([4]; phage 75): 325%
- Number of Cells ([6]; Patient 1): 0.75 106
- Percent Differentiation ([6]; Patient 1): 79.2%
- Number of Cells ([6]; Patient 2): 0.33 106
- Percent Differentiation ([6]; Patient 2): 49.5%
- Percent differentiated in Specimen 1 [6]: 79%
- Percent differentiated in Specimen 2 [6]: 50%

Molecule: KRGIHPES [B3 9-1-01 no Cys]
- binding of phage displaying the peptide to normal bone marrow (normal bone marrow cells): bind
- binding of phage displaying the peptide to AML cells (AML cells): not

Molecule: VSEDIYDA [E11 12-8B]
- binding of phage displaying the peptide to CML cells (CML cells): bind
- binding of phage displaying the peptide to AML cells (AML cells): bind
- binding of phage displaying the peptide to cord blood cells (cord blood cells): bind
